From PMC9501983, “Transport and Permeation Properties of Dapivirine: Understanding Potential Drug-Drug Interactions” (Pharmaceutics, 2022)

Experiments:
[1] = biological target: T1, MRP1 (Homo sapiens, UniProt P33527)
Procedure: To investigate if DPV was a substrate or inhibitor of MRP1 or MRP4, ATP-dependent and independent uptake of DPV (in the substrate study) or estradiol 17 β-D-glucuronide (a known MRP1/MRP4 substrate in the inhibitor study) was measured using 50 μg MRP1, MRP4, and control vesicles. […] The uptake assay was performed at a total volume of 50 μL with either 4 mM ATP or AMP, 2 mM glutathione, 10 μM DPV or estradiol 17 β-D-glucuronide as substrates, with and without 20 μM DPV or MK571 as inhibitors. […] To quantify the uptake amount of DPV or estradiol 17 β-D-glucuronide, 4 μCi mL^−1 3H-DPV or ^3H- estradiol 17 β-D-glucuronide was added to the assay mixture.
The vesicular uptake assays were performed under the above-mentioned conditions. The membrane vesicles were first incubated with respective inhibitor solution or blank assay buffer. The reaction was then initiated by adding the remaining components of the assay mixture to the vesicles and incubated at 37 °C for 3 min. To terminate the reaction, 200 μL ice-cold buffer was added to each well. The samples were then transferred to a glass fiber filter plate and washed 5 times by rapid filtration using a vacuum manifold (IBI Scientific, Dubuque, IA, USA). To quantify ^3H-DPV and ^3H-estradiol 17 β-D-glucuronide uptake, the washed vesicles were lysed with scintillation cocktail at room temperature for 20 min. The collected samples were analyzed on an LS6500 liquid scintillation counter (Beckman Coulter, Brea, CA, USA).
If ATP-dependent uptake was observed, the uptake amount by active transport was calculated using Equation (1):(1) Normalized uptake=mean uptake with ATP−mean uptake with AMP

[2] = biological target: T2, P-gp (Homo sapiens, UniProt P08183); experiment: Bi-directional transport across MDCKII P-gp and WT cell monolayers; format: in vitro ADME
T2 construct: expressed in transfected cells; host or cells: MDCKII (Madin-Darby canine kidney) cells, provided by Dr. Philip E. Empey
T2 sequence (P08183 whole entry): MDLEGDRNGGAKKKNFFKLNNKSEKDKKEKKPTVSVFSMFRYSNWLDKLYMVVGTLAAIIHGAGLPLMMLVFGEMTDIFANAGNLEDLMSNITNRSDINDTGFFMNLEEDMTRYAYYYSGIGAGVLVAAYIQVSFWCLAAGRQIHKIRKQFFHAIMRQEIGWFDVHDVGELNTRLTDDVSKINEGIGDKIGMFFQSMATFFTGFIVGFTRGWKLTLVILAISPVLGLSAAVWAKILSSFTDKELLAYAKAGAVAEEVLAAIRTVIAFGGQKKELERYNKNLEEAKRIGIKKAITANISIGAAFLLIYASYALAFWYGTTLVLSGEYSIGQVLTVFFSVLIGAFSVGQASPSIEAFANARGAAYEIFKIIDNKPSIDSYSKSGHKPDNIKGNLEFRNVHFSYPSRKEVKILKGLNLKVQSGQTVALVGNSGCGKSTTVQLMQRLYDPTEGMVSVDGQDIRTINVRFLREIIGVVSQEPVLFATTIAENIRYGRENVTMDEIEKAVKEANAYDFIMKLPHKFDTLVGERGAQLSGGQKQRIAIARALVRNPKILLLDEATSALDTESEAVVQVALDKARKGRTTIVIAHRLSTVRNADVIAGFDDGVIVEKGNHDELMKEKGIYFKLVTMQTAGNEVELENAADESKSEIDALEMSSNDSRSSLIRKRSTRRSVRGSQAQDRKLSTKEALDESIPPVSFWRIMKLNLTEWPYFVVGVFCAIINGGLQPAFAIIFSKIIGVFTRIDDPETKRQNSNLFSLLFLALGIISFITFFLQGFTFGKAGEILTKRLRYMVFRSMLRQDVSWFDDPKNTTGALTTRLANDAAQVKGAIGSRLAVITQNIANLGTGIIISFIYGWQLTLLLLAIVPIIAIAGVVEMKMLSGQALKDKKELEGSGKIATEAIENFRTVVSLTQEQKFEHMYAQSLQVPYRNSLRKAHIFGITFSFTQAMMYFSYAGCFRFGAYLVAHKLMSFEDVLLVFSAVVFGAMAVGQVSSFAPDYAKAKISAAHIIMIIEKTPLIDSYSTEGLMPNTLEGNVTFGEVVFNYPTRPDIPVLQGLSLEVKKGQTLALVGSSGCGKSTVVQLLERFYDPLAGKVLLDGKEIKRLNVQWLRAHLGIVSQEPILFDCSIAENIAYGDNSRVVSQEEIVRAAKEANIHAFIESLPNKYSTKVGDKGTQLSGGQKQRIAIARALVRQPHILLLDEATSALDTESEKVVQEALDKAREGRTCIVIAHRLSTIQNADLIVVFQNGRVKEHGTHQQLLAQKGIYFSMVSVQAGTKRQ

[3] = biological target: T3, ENT1 (Homo sapiens, UniProt Q99808); experiment: Cellular uptake in HEK293 ENT1 and EV cells; format: in vitro ADME
T3 construct: host or cells: HEK293
T3 sequence (Q99808 1-456): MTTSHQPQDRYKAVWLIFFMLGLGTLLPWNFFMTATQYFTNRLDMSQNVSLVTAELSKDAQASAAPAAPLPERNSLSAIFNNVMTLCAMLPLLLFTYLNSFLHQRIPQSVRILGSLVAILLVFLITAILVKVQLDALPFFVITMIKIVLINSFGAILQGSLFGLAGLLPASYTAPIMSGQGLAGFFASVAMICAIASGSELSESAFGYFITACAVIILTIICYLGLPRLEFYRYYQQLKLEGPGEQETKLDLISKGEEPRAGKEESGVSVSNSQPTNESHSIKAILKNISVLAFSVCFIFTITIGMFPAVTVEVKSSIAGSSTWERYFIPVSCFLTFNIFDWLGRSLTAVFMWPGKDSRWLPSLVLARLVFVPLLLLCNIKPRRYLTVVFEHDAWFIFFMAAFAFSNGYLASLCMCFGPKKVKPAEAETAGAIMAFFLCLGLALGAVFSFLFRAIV
Procedure: HEK293 ENT1 and HEK293 EV cells were seeded at a density of 5 x 10^4 cells per well in 24-well plates and cultured for 4 days. Before the uptake assay, cells were starved in serum-free minimum essential medium at 37 °C for 3 h to activate the ENT1 transporter. The assays were performed in Krebs-Ringer buffer with pH 7.4 supplemented with 25 mM sodium bicarbonate and 1.2 mM calcium chloride dihydrate. […] 200 nM nitrobenzylthioinosine was also used as the positive control for ENT1 inhibition.
Starved cells were first incubated with respective inhibitor solution or blank Krebs-Ringer buffer for 30 min at 37 °C. […] To terminate the assay, ice-cold Dulbecco’s phosphate-buffered saline was added to cells. Cells were then washed twice with ice-cold Dulbecco’s phosphate-buffered saline and lysed with 1% SDS at room temperature for 20 min. […] The drug uptake was normalized against protein content. Changes in drug uptake between groups were calculated using the mean uptake values of individual groups.

[4] = test system: human cervical tissue; experiment: Histology (H&E) of human cervical tissue after permeability assay; conditions: 6-h exposure, clinically relevant concentrations
Procedure: Gross morphology of tissue samples was evaluated using hematoxylin and eosin (H&E) staining. After fixation in formalin, tissue samples were dehydrated in alcohol, cleared in xylene, and embedded in paraffin wax. Five-micron sections of embedded tissue were used to perform H&E staining following manufacturer’s procedures (hematoxylin for 5 min, bluing reagent for 15 s, and eosin for 2 min) and mounted onto microscope slides using Cytoseal 60. Images were acquired using the AxioCam software, version 4.9.1 (Carl Zeiss, San Diego, CA, USA) paired with the microscope, Axioskop 40 (Carl Zeiss, San Diego, CA, USA).

[5] = test system: MRP1; design: method as in PMID 26102284; conditions: DPV at 10 μM; cited from earlier work
[6] = test system: CYP1A1; design: method as in PMID 34959473; conditions: cited from earlier work
[7] = test system: UGT enzymes; design: method as in PMID 34959473; conditions: cited from earlier work
[8] = biological target: T1, MRP1; experiment: ATPase assay (ADP-Glo Max) in MRP1 vesicles; format: biochemical; design: purchased Thermo Fisher Scientific; conditions: DPV 20 μM; N-ethylmaleimide-S-glutathione 10 mM; 60 min, 37 °C
Procedure: ATPase activity of MRP1 or MRP4 in transporter overexpressing membrane vesicles (10 μg of protein per assay) was measured by the ADP-Glo Max assay according to manufacturer’s protocol. The assay quantified the amount of ADP produced by the membrane vesicles over 60 min at 37 °C in the ATPase assay buffer (50 mM Tris-MOPS, 50 mM potassium chloride, 5 mM sodium azide, 2 mM dithiothreitol, 2 mM glutathione, 0.1 mM EGTA-Tris, and 10 mM magnesium chloride at pH 7.0). DPV was tested at 20 μM and compared to the baseline ATPase activity. A known MRP1 substrate, N-ethylmaleimide-S-glutathione (prepared by mixing N-ethylmaleimide and glutathione at a 1:1 molar ratio), at 10 mM and a known MRP4 substrate, prostaglandin E2, at 20 μM were used as positive controls. The reaction was initiated with 5 mM ATP and quenched with the ADP-Glo detection buffer. The amount of ADP produced was quantified by recording luminescence on a SpectraMax M3 plate reader (Molecular Devices, San Jose, CA, USA).

T1 sequence (P33527 whole entry): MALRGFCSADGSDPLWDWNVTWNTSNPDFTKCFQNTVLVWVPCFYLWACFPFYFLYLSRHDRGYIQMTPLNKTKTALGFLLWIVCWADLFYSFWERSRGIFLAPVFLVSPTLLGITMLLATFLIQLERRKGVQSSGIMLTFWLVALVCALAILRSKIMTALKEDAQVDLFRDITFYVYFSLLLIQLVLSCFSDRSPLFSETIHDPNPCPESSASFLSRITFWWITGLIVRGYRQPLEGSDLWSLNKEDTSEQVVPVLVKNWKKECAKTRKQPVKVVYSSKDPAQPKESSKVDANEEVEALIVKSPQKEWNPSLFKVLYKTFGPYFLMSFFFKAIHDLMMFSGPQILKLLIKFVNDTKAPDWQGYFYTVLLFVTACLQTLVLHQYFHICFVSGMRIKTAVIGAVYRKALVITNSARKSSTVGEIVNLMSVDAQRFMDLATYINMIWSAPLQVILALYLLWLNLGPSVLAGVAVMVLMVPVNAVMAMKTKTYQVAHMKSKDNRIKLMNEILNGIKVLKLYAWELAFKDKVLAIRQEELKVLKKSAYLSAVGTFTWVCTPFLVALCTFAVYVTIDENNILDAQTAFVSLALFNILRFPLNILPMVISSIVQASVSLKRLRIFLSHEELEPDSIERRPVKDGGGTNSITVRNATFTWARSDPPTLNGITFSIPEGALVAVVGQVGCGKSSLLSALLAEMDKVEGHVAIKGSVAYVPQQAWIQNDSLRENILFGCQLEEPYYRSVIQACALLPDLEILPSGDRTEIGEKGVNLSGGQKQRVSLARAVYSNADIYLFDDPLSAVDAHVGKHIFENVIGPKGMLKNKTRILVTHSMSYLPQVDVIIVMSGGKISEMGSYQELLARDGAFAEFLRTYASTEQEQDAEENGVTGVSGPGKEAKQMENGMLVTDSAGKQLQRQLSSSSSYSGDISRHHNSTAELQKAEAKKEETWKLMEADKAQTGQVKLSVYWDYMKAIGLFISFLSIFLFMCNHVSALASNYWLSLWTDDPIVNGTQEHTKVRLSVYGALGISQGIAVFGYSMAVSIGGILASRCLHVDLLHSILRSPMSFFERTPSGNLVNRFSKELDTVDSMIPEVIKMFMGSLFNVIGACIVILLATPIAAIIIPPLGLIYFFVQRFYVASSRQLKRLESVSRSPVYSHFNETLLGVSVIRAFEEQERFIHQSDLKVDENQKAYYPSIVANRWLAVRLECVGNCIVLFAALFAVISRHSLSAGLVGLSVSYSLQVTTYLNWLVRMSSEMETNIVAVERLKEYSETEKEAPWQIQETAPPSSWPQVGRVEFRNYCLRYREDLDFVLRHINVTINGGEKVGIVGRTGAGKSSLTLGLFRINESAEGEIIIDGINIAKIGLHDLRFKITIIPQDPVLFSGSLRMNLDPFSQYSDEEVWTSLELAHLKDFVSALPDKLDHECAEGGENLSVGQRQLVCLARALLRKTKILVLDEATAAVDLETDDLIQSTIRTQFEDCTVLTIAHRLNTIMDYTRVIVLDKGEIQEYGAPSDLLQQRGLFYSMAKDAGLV

Substrate status for MRP1 [1]: not a substrate
Normalized estradiol 17 β-D-glucuronide uptake by MRP1 vesicles co-incubated with inhibitor ([1]; 10 μM substrate, 20 μM test inhibitor, ATP minus AMP): 35.83 fmol
Active uptake of estradiol 17 β-D-glucuronide by MRP1 vesicles, reduced to % of control ([1]; 20 µM): not significantly affected
DPV ER in MDCKII P-gp cells with verapamil, reduced to % of ER without ([2]; 0.5 μM DPV, 100 μM verapamil): 65%
Impact on Papp of digoxin across MDCKII P-gp monolayers (either direction) ([2]; 5 μM DPV, 1 μM digoxin): no significant impact
Substrate status for P-gp ([2]; cellular system): not a substrate
efflux ratio at 90 min, 0.5 μM ([2]; dog, MDCK-MDR1, pH 7.4, 0.5 μM DPV, read-out: Net flux ratio (ER MDCKII P-gp / ER MDCKII WT)): 1.31
Cellular uptake of thymidine in HEK293 ENT1 cells, reduced to % of control ([3]; 5 nM thymidine, nitrobenzylthioinosine 200 nM, DPV 5 μM): no significant impact
Cellular uptake of DPV in HEK293 ENT1 cells compared with HEK293 EV cells ([3]; 0.5 μM DPV, 10 min, 37 °C): similar
Substrate status for ENT1 ([3]; cellular system): not a substrate
Gross morphology of human cervical epithelium after exposure [4]: did not alter the gross morphology
ATPase activity in MRP1 vesicles, % of baseline [8]: no significant stimulation
Compound: Cc1cc(C)c(Nc2ccnc(Nc3ccc(C#N)cc3)n2)c(C)c1 [DPV, dapivirine]
Effect on MRP1 expression level [5]: upregulated
Substrate of CYP1A1 [6]: substrate
Substrate of UGT enzymes [7]: not a substrate
